Measured values published in ChEMBL document CHEMBL1158889, “Antineoplastic agents 500. Narcistatin” (J Nat Prod, 2003).
≈ marks a conversion by molar mass, not a printed value.

Experiments:
[1] = test system: P388; assay: Cytotoxicity against mouse P388 cells; format: functional; details: for EC50: read-out: ED50 (the source's name)
[2] = test system: BXPC-3; assay: Cytotoxicity against human BxPC3 cells; format: functional
[3] = test system: MCF7; assay: Cytotoxicity against human MCF7 cells; format: functional
[4] = test system: SF-268; assay: Cytotoxicity against human SF268 cells; format: functional
[5] = test system: NCI-H460; assay: Cytotoxicity against human NCI-H460 cells; format: functional
[6] = test system: KM-20L2; assay: Cytotoxicity against human KM20L2 cells; format: functional
[7] = test system: DU-145; assay: Cytotoxicity against human DU145 cells; format: functional
[8] = physchem; details: aqueous (not further specified)
Description: Aqueous solubility of the compound

[9] = buffer
Description: Aqueous solubility of the compound

Molecule | EC50 [1] | GI50 [2] | GI50 [3] | GI50 [4] | GI50 [5] | GI50 [6] | GI50 [7] | solubility [8] | solubility [9] | ED50 [1]
O=C1N[C@@H]2C(=C[C@H](O)[C@H]3OP(=O)([O-])O[C@H]32)c2cc3c(c([O-])c21)OCO3.[Ca+2] [CALCIUM NARCISTATIN] | 0.0223 µg/mL | 0.045 µg/mL | 0.059 µg/mL | 0.031 µg/mL | 0.12 µg/mL | 0.059 µg/mL | 0.0093 µg/mL | < 1000 µg/mL | – | –
O=C1N[C@@H]2C(=C[C@H](O)[C@H]3OP(=O)([O-])O[C@H]32)c2cc3c(c(O)c21)OCO3.[Cs+] [CESIUM NARCISTATIN] | 0.183 µg/mL | 0.41 µg/mL | 0.62 µg/mL | 0.33 µg/mL | > 1 µg/mL | 0.66 µg/mL | 0.13 µg/mL | < 13000 µg/mL | – | –
O=C1N[C@@H]2C(=C[C@H](O)[C@H]3OP(=O)(O)O[C@H]32)c2cc3c(c(O)c21)OCO3.c1c[nH]cn1 [IMIDAZOLIUM NARCISTATIN] | 0.24 µg/mL | 0.45 µg/mL | 0.9 µg/mL | 0.38 µg/mL | > 1 µg/mL | > 1 µg/mL | 0.44 µg/mL | 5800 µg/mL | – | –
O=C1N[C@@H]2C(=C[C@H](O)[C@H]3OP(=O)([O-])O[C@H]32)c2cc3c(c(O)c21)OCO3.[Li+] [LITHIUM NARCISTATIN] | 0.121 µg/mL | 0.25 µg/mL | 0.31 µg/mL | 0.17 µg/mL | 0.3 µg/mL | 0.26 µg/mL | 0.13 µg/mL | > 50000 µg/mL | – | –
O=C1N[C@@H]2C(=C[C@H](O)[C@H]3OP(=O)([O-])O[C@H]32)c2cc3c(c([O-])c21)OCO3.[Mg+2] [MAGNESIUM NARCISTATIN] | 0.17 µg/mL | 0.19 µg/mL | 0.25 µg/mL | 0.14 µg/mL | 0.29 µg/mL | 0.31 µg/mL | 0.1 µg/mL | < 1500 µg/mL | – | –
C1COCCN1.O=C1N[C@@H]2C(=C[C@H](O)[C@H]3OP(=O)(O)O[C@H]32)c2cc3c(c(O)c21)OCO3 [MORPHOLINIUM NARCISTATIN] | 0.232 µg/mL | 0.25 µg/mL | 0.48 µg/mL | 0.24 µg/mL | > 1 µg/mL | 0.54 µg/mL | 0.14 µg/mL | > 13000 µg/mL | – | –
O=C1N[C@@H]2C(=C[C@H](O)[C@H]3OP(=O)(O)O[C@H]32)c2cc3c(c(O)c21)OCO3 [NARCISTATIN] | 0.275 µg/mL (≈ 0.745 µM) | 0.33 µg/mL (≈ 0.894 µM) | 0.35 µg/mL (≈ 0.948 µM) | 0.22 µg/mL (≈ 0.596 µM) | 0.47 µg/mL (≈ 1.27 µM) | 0.53 µg/mL (≈ 1.44 µM) | 0.16 µg/mL (≈ 0.433 µM) | 4000 µg/mL (≈ 10800 µM) | – | –
C1CNCCN1.O=C1N[C@@H]2C(=C[C@H](O)[C@H]3OP(=O)(O)O[C@H]32)c2cc3c(c(O)c21)OCO3 [PIPERAZINIUM NARCISTATIN] | 0.0378 µg/mL | 0.1 µg/mL | 0.17 µg/mL | 0.099 µg/mL | 0.24 µg/mL | 0.22 µg/mL | 0.032 µg/mL | 1900 µg/mL | – | –
O=C1N[C@@H]2C(=C[C@H](O)[C@H]3OP(=O)([O-])O[C@H]32)c2cc3c(c(O)c21)OCO3.[K+] [POTASSIUM NARCISTATIN] | 0.242 µg/mL | 0.36 µg/mL | 0.4 µg/mL | 0.19 µg/mL | 0.67 µg/mL | 0.56 µg/mL | 0.26 µg/mL | 11000 µg/mL | – | –
O=C1N[C@@H]2C(=C[C@H](O)[C@H]3OP(=O)(O)O[C@H]32)c2cc3c(c(O)c21)OCO3.c1ccncc1 [PYRIDINIUM NARCISTATIN] | 0.191 µg/mL | 0.22 µg/mL | 0.27 µg/mL | 0.15 µg/mL | 0.27 µg/mL | 0.34 µg/mL | 0.17 µg/mL | – | – | –
C=C[C@@H]1CN2CC[C@@H]1C[C@H]2[C@@H](O)c1ccnc2ccc(OC)cc12.O=C1N[C@@H]2C(=C[C@H](O)[C@H]3OP(=O)(O)O[C@H]32)c2cc3c(c(O)c21)OCO3 [QUINIDINIUM NARCISTATIN] | 0.271 µg/mL | 0.31 µg/mL | 0.5 µg/mL | 0.25 µg/mL | 0.77 µg/mL | 0.58 µg/mL | 0.22 µg/mL | – | – | –
C=C[C@@H]1CN2CC[C@@H]1C[C@@H]2[C@H](O)c1ccnc2ccc(OC)cc12.O=C1N[C@@H]2C(=C[C@H](O)[C@H]3OP(=O)(O)O[C@H]32)c2cc3c(c(O)c21)OCO3 [QUININIUM NARCISTATIN] | 0.0342 µg/mL | 0.051 µg/mL | 0.12 µg/mL | 0.045 µg/mL | 0.17 µg/mL | 0.12 µg/mL | 0.013 µg/mL | – | – | –
O=C1N[C@@H]2C(=C[C@H](O)[C@H]3OP(=O)([O-])O[C@H]32)c2cc3c(c(O)c21)OCO3.[Na+] [SODIUM NARCISTATIN] | 0.255 µg/mL | 0.32 µg/mL | 0.56 µg/mL | 0.23 µg/mL | > 1 µg/mL | 0.45 µg/mL | 0.12 µg/mL | 60000 µg/mL | – | –
O=C1N[C@@H]2C(=C[C@H](O)[C@H]3OP(=O)([O-])O[C@H]32)c2cc3c(c(O)c21)OCO3.O=C1N[C@@H]2C(=C[C@H](O)[C@H]3OP(=O)([O-])O[C@H]32)c2cc3c(c(O)c21)OCO3.[Zn+2] [ZINC NARCISTATIN] | 0.0287 µg/mL | 0.069 µg/mL | 0.14 µg/mL | 0.053 µg/mL | 0.21 µg/mL | 0.16 µg/mL | 0.016 µg/mL | 1700 µg/mL | – | –
MANGANESE NARCISTATIN [listing 1 of 2 here] | – | – | – | – | – | – | – | – | < 3000 µg/mL | –
MANGANESE NARCISTATIN [listing 2 of 2 here] | – | 0.049 µg/mL | 0.07 µg/mL | 0.04 µg/mL | 0.15 µg/mL | 0.13 µg/mL | 0.034 µg/mL | – | – | 4.27 ×10⁻² µg/ml
